Results published in patent US5955463A, “Quinazoline thymidylate synthase inhibitors” (Zeneca Limited, priority 1992, dated 1999).

Experiments:
[1] = tested on: leukaemia cell line L1210; test: Test (b): inhibition of growth of leukaemia cell line L1210 in cell culture; type: cell-based; details: Mus musculus
Description: (b) An assay which determines the ability of a test compound to inhibit the growth of the leukaemia cell line L1210 in cell culture.

[2] = tested on: human breast cancer cell line MCF-7; test: Test (c): inhibition of growth of human breast cancer cell line MCF-7 in cell culture; type: cell-based; details: MCF7, MCF-7 cell culture growth
Description: (c) An assay which determines the ability of a test compound to inhibit the growth of the human breast cancer cell line MCF-7 in cell culture.

thymidylate synthase = target: T1, thymidylate synthase (Mus musculus, UniProt P07607); test: Test (a): in vitro inhibition of thymidylate synthase (partially purified from L1210 mouse leukaemia cells); type: biochemical
T1 construct: obtained in partially purified form from L1210 mouse leukaemia cells; endogenous in cells; host or cells: L1210 mouse leukaemia cells
T1 sequence (P07607 whole entry): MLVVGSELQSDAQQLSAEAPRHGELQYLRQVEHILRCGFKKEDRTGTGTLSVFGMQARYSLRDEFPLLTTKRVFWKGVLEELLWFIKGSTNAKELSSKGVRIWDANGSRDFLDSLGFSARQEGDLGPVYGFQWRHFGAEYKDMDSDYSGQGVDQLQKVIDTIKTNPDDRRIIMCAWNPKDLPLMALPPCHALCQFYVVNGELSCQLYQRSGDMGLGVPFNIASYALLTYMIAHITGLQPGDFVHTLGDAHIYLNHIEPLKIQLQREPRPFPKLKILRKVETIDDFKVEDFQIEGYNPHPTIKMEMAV
Description: (a) An in vitro assay which determines the ability of a test compound to inhibit the enzyme thymidylate synthase.

[3] = tested on: human breast, ovarian and liver cancer; details: clinical trials; cited from earlier work
[4] = particularly liver and kidney; cited from earlier work

With `C#CCN(Cc1ccc2nc(C)[nH]c(=O)c2c1)c1ccc(C(=O)N[C@@H](CCc2nnn[nH]2)C(=O)O)cc1` [(2S)-2-{p-[N-(2-methyl-4-oxo-3,4-dihydroquinazolin-6-ylmethyl)-N-(prop-2-ynyl)amino]benzamido}-4-(tetrazol-5-yl)butyric acid] the IC50 [1] was ~120 nM, the IC50 [2] was ~40 nM and the IC50 (thymidylate synthase) was ~13 nM.
Molecule `C#CCN(Cc1cc2c(=O)[nH]c(C)nc2cc1C)c1ccc(C(=O)N[C@@H](CCc2nnn[nH]2)C(=O)O)c(F)c1` [(2S)-2-{o-fluoro-p-[N-(2,7-dimethyl-4-oxo-3,4-dihydroquinazolin-6-ylmethyl)-N-(prop-2-ynyl)amino]benzamido}-4-(tetrazol-5-yl)butyric acid] has an IC50 [1] of ~20 nM and an IC50 [2] of ~10 nM.
For `Cc1nc2cc(C)c(CN(C)c3ccc(C(=O)N[C@@H](CCc4nnn[nH]4)C(=O)O)c(F)c3)cc2c(=O)[nH]1` [(2S)-2-{o-fluoro-p-[N-(2,7-dimethyl-4-oxo-3,4-dihydroquinazolin-6-ylmethyl)-N-methylamino]benzamido}-4-(tetrazol-5-yl)butyric acid], the IC50 [1] was ~70 nM, the IC50 [2] was ~40 nM and the IC50 (thymidylate synthase) was ~2 nM.
In the case of `C#CCN(Cc1ccc2nc(N)[nH]c(=O)c2c1)c1ccc(C(=O)N[C@@H](CCC(=O)O)C(=O)O)cc1` [CB3717], the “activity against human breast, ovarian and liver cancer” value [3] is listed as “promising activity against human breast, ovarian and liver cancer” and the “symptoms of toxicity in humans” value [4] is listed as “shows symptoms of toxicity in humans, particularly in relation to the liver and kidney”.
